According to ChEMBL document CHEMBL1201862, “PubChem BioAssay data set” (2004):
The source made the active and inactive calls.

Columns and labels:
[1] = biological target: Glucose-6-phosphate 1-dehydrogenase (Homo sapiens, UniProt P11413); test: human G6PD enzyme inhibitors, dose response, selectivity assay for P. falciparum G6PD inhibitor project, biochemical, fluorescence (AID 504792); type: functional
[2] = biological target: T1, Polyadenylate-binding protein 1 (Homo sapiens, UniProt P11940); test: PABP1 MLLE–PAM2 binding inhibitor potency, dose response, biochemical, fluorescence polarization, FITC-PAM2 peptide (AID 602259); type: functional; conditions: read-out: IC50_Mean
Caspase-6 = biological target: T2, Caspase-6 (Homo sapiens, UniProt P55212); test: human caspase-6 inhibitors, dose response, biochemical, VEID-R110 fluorescence, cherry-pick (AID 720632)
T2 sequence (P55212 whole entry): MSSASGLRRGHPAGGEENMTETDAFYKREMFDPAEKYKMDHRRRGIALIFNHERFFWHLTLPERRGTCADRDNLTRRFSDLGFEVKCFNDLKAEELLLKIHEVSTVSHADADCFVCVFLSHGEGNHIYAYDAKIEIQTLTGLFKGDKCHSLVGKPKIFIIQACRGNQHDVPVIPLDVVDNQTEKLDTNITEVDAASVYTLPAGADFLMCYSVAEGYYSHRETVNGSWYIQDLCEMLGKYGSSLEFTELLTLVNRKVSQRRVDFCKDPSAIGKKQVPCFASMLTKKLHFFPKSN

[3] = biological target: T3, Apoptotic protease-activating factor 1 (Homo sapiens, UniProt O14727); test: SAR analysis of small molecule Activators of Apaf-1 in a Fluorescent assay.; type: functional; conditions: read-out: EC50_Mean
T3 sequence (O14727 whole entry): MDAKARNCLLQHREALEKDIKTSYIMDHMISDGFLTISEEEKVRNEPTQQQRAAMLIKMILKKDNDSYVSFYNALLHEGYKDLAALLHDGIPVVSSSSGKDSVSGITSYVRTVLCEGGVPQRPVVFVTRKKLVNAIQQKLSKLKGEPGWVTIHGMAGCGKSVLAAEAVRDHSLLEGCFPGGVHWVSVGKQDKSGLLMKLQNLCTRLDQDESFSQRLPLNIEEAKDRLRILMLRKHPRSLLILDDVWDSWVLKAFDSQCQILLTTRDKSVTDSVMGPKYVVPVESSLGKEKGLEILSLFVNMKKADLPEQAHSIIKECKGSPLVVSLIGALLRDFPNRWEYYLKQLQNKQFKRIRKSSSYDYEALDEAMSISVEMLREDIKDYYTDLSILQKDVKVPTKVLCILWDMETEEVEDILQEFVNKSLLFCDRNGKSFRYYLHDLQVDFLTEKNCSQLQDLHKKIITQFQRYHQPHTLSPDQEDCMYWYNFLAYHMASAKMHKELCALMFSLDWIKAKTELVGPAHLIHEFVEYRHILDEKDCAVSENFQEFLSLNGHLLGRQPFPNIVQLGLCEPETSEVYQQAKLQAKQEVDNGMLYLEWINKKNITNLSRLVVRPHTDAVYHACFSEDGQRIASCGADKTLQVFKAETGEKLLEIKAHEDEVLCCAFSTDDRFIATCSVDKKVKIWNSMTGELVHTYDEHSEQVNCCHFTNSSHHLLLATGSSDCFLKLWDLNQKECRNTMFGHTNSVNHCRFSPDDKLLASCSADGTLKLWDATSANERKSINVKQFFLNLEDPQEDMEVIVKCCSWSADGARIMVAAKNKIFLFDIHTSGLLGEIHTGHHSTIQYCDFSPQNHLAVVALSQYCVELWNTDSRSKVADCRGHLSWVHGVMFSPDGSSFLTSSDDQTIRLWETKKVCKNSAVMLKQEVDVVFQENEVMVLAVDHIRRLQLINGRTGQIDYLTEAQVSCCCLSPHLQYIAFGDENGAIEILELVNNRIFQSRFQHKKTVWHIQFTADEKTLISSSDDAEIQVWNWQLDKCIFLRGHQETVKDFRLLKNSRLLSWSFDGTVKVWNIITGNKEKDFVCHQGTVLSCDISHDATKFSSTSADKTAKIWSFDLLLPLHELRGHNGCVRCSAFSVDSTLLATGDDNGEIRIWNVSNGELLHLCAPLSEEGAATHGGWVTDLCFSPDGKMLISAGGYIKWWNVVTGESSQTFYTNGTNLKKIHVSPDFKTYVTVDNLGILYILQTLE

Caspase-7 = Caspase-7 (Homo sapiens, UniProt P55210); test: human caspase-7 inhibitors, dose response, selectivity assay for caspase-6 inhibitor project, biochemical, DEVD-R110 fluorescence, cherry-pick (AID 743295)
[4] = biological target: T3, Apoptotic protease-activating factor 1; test: activation of Apaf-1 mediated apoptosis – fluorescent, uHTS hits, dose response (AID 588554); type: functional
[5] = biological target: T4, Replicative DNA helicase DnaB (Mycobacterium tuberculosis, UniProt P9WMR3); test: DnaB intein splicing inhibitors, dose response, biochemical, cell-free fluorescence (AID 449749); type: functional
T4 sequence (P9WMR3 whole entry): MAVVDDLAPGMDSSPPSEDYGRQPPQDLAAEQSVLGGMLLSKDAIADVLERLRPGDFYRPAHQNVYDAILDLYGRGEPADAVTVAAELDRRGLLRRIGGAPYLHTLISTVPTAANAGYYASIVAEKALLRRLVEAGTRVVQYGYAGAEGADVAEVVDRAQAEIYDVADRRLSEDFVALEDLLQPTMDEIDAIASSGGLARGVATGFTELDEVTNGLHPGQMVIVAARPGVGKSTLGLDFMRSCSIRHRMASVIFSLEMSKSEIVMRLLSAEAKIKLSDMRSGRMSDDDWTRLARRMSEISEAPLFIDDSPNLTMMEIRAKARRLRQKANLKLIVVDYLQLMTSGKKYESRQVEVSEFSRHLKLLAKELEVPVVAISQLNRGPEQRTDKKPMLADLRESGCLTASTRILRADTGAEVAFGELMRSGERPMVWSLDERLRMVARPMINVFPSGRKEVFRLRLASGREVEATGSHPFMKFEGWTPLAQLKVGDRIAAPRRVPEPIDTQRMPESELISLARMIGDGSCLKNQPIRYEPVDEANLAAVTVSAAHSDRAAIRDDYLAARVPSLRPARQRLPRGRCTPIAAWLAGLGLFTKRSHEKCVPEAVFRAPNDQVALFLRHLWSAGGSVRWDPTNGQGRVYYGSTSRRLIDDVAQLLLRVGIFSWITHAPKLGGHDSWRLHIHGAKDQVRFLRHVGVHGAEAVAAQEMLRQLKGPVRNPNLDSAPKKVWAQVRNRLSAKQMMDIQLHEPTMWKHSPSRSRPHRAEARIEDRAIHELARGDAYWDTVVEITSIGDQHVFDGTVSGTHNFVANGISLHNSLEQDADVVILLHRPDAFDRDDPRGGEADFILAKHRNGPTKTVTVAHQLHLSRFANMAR

[6] = biological target: T1, Polyadenylate-binding protein 1; test: PABP1 MLLE–PAM2 interaction inhibitors, dose response, miRNA deadenylation inhibitor project, biochemical, fluorescence polarization, Cy5-PAM2 peptide, secondary (AID 602260); type: functional; conditions: read-out: IC50_Mean
Protein RecA = biological target: T5, Protein RecA (Mycobacterium tuberculosis, UniProt P9WHJ3); test: Fluorescence Cell-Free Homogeneous Dose Retest to Identify Inhibitors of RecA-Intein Splicing Activity. [Related pubchem assays (depositor defined):AID2097, AID2223, AID489010, AID492950]; type: functional
T5 sequence (P9WHJ3 whole entry): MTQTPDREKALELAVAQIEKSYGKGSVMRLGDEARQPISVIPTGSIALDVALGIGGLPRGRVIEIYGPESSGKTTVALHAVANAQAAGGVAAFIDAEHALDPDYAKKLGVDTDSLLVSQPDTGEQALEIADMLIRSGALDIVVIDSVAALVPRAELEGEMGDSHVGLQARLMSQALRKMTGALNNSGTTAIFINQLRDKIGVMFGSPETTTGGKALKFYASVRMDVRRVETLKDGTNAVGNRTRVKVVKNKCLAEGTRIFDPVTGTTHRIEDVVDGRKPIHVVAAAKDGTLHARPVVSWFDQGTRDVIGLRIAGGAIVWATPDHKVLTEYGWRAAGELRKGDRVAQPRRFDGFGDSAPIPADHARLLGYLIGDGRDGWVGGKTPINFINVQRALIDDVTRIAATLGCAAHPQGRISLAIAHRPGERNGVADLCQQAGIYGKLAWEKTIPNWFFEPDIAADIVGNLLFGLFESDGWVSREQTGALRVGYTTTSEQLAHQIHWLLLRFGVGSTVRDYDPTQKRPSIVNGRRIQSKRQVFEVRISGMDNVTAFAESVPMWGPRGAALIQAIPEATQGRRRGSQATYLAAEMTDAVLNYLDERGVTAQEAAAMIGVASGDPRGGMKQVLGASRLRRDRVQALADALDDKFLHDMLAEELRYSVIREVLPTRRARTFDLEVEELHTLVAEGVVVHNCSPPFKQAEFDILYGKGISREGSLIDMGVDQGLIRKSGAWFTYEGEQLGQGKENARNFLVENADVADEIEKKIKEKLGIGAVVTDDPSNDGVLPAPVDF

Cytochrome P450 2C19 = Cytochrome P450 2C19 (Homo sapiens, UniProt P33261); test: Cytochrome panel assay with activity outcomes. Panel member name: p450-cyp2c19 Compounds with AC50 equal or less than 10 uM are considered active; type: functional
Cytochrome P450 1A2 = biological target: T6, Cytochrome P450 1A2 (Homo sapiens, UniProt P05177);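 note: PubChem cytochrome P450 panel assay, CYP1A2 panel member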
T6 sequence (P05177 whole entry): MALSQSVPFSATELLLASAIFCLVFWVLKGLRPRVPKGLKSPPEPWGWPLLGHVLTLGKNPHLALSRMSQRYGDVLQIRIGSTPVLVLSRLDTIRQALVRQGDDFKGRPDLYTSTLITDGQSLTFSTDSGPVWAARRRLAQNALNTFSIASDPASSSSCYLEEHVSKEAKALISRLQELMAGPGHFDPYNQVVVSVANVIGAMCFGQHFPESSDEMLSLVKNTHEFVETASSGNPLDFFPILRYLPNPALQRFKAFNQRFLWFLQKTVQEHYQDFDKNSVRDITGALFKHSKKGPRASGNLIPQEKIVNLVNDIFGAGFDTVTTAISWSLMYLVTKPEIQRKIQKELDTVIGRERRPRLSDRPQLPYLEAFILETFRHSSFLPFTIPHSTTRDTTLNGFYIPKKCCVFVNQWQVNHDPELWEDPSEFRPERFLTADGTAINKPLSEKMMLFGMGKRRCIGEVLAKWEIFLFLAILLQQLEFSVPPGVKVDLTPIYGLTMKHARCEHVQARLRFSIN

Cytochrome P450 2D6 = Cytochrome P450 2D6 (Homo sapiens, UniProt P10635);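 note: CYP2D6 member of a cytochrome P450 panel assay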
[7] = growth induction of Burl-1 ts yeast mutant, dose response, counter-screen for SUMOylation pathway inhibitor project, whole organism, S. cerevisiae, luminescence (AID 463199); type: functional
Fatty acid synthase [8] = biological target: T7, Fatty acid synthase (Homo sapiens, UniProt P49327); test: FAS thioesterase domain inhibitors, dose response, biochemical, endpoint fluorescence intensity, uHTS hits (AID 624327); type: functional;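 note: fluorescence from hydrolysis of an O-methyl fluorescein acyl ester substrate by the enzyme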
Vero = Vero cell cytotoxicity, cytotoxicity control for flavivirus capping enzyme inhibitors (AID 588742); type: functional; conditions: Chlorocebus sabaeus
[9] = biological target: T8, Probable nicotinate-nucleotide adenylyltransferase (Staphylococcus aureus (strain N315), UniProt P65502); type: functional, Staphylococcus aureus subsp. aureus N315; conditions: read-out: IC50_Mean;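 for IC50 Mean: confirmatory dose-response retesting of NadD inhibitor hits first found in an ultra-high-throughput screen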
Fatty acid synthase [10] = biological target: T7, Fatty acid synthase; test: FAS thioesterase domain inhibitors, dose response, biochemical, kinetic fluorescence intensity (AID 624326); type: functional;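 note: rate of fluorescence rise from hydrolysis of a fluorogenic O-methyl fluorescein ester substrate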
[11] = biological target: T9, Dual specificity protein phosphatase 3 (Homo sapiens, UniProt P51452); test: SAR VHR1 absorbance Assay for In Vitro dose response studies. [Related pubchem assays (depositor defined):AID1654, AID1661, AID1878, AID1992, AID2004]
[12] = biological target: T10, Dual specificity protein phosphatase 6 (Rattus norvegicus, UniProt Q64346); type: functional;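 note: confirmatory in vitro dose-response testing of MKP-3 inhibition; recombinant His-tagged MKP-3 made in E. coli BL21 with OMFP substrate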
T10 sequence (Q64346 whole entry): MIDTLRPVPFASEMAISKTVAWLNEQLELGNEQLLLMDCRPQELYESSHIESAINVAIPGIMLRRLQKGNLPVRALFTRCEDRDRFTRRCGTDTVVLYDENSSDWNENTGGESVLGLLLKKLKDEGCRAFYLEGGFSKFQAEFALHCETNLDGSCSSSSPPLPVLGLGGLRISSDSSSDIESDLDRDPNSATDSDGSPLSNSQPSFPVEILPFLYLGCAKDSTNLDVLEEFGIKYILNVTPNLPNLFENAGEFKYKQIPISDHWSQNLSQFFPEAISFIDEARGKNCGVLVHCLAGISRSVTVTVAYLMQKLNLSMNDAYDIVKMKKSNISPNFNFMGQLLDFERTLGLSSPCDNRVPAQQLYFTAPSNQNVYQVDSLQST

[13] = biological target: T8, Probable nicotinate-nucleotide adenylyltransferase; type: functional, Staphylococcus aureus subsp. aureus N315
[14] = biological target: T9, Dual specificity protein phosphatase 3; test: SAR VHR1 Fluorescent Assay for In Vitro dose response studies Set 2. [Related pubchem assays (depositor defined):AID1654, AID1661, AID1878]; type: functional
[15] = biological target: T9, Dual specificity protein phosphatase 3; test: SAR VHR1 Fluorescent Assay for In Vitro dose response studies. [Related pubchem assays (depositor defined):AID1654, AID1661, AID1878, AID1992, AID2004, AID2070, AID2085]; type: functional
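Throughout, for EC50 Mean: caspase-3 cleavage of fluorogenic Rh110 DEVD substrate downstream of apoptosome activation.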

T9 sequence (P51452 whole entry): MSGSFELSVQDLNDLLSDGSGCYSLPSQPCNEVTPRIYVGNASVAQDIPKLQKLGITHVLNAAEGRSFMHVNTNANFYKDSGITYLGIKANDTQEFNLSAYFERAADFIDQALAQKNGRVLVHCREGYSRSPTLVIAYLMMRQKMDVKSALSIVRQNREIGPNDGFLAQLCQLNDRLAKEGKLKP
T7 sequence (P49327 whole entry, the tested form may be a part): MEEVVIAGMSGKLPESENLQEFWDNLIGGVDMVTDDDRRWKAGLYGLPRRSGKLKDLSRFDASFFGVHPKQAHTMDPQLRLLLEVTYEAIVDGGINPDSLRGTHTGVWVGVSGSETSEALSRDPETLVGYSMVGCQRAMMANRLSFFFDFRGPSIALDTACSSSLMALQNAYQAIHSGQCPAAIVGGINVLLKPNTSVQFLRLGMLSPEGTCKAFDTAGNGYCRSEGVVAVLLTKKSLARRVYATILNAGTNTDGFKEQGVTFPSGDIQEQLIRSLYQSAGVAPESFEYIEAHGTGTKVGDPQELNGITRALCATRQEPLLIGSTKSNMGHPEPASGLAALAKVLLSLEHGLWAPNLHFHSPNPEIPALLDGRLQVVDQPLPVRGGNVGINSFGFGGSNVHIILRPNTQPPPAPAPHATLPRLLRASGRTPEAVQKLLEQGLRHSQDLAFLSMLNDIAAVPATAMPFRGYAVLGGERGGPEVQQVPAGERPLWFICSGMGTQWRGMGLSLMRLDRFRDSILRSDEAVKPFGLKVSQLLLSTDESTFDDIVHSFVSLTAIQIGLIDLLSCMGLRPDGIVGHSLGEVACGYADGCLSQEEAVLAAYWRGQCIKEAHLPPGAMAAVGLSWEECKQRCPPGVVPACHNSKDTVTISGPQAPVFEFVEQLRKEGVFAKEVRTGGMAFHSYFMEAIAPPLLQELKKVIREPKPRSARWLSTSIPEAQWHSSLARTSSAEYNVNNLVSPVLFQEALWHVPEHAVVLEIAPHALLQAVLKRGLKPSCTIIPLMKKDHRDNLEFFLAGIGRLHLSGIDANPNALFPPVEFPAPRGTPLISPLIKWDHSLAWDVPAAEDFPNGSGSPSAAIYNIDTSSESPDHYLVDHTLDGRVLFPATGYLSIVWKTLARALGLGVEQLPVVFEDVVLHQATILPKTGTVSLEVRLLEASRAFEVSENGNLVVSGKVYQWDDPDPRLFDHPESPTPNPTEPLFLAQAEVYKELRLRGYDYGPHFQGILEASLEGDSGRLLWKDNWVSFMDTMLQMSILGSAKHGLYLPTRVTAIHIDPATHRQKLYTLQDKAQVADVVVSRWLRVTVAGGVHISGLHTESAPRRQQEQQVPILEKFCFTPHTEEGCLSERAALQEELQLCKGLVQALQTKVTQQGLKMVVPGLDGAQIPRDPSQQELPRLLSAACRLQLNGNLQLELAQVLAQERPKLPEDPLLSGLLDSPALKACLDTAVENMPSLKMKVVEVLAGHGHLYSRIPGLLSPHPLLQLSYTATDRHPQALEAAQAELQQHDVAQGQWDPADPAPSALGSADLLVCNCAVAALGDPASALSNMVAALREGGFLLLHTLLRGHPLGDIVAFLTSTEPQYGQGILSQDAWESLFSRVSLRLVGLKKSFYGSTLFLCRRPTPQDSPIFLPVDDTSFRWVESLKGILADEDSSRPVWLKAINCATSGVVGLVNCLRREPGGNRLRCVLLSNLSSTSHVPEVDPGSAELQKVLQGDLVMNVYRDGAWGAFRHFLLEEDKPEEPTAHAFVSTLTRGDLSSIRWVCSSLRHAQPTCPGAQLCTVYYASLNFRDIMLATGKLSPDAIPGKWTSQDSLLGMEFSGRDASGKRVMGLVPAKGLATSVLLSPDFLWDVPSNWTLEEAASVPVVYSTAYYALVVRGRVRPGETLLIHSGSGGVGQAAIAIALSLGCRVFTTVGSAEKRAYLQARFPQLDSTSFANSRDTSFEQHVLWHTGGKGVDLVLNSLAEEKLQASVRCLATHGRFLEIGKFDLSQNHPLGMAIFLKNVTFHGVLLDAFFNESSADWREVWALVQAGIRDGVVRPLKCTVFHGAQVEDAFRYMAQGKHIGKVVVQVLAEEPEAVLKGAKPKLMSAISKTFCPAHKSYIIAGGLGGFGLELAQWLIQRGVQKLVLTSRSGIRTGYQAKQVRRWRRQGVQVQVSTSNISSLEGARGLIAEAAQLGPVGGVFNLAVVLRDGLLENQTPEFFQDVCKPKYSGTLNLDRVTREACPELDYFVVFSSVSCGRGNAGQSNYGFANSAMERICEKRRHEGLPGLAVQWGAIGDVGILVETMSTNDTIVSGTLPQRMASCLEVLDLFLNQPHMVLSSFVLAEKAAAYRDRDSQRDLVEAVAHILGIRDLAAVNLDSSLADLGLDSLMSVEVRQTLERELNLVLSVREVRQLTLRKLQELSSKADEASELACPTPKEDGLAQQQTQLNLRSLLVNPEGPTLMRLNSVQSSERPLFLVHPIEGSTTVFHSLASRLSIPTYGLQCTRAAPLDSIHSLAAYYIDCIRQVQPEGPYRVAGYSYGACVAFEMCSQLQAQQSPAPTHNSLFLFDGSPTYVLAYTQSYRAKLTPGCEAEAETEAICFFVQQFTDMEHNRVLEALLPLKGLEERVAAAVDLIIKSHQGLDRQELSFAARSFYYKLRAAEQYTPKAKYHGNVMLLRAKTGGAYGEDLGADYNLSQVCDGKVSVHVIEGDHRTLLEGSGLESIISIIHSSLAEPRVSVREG
T8 sequence (P65502 whole entry, the tested form may be a part): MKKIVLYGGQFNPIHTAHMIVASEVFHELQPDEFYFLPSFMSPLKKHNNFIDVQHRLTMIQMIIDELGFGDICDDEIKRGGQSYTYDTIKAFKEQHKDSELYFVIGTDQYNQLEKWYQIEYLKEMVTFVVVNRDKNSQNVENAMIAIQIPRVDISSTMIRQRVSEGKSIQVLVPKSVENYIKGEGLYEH
T1 sequence (P11940 whole entry): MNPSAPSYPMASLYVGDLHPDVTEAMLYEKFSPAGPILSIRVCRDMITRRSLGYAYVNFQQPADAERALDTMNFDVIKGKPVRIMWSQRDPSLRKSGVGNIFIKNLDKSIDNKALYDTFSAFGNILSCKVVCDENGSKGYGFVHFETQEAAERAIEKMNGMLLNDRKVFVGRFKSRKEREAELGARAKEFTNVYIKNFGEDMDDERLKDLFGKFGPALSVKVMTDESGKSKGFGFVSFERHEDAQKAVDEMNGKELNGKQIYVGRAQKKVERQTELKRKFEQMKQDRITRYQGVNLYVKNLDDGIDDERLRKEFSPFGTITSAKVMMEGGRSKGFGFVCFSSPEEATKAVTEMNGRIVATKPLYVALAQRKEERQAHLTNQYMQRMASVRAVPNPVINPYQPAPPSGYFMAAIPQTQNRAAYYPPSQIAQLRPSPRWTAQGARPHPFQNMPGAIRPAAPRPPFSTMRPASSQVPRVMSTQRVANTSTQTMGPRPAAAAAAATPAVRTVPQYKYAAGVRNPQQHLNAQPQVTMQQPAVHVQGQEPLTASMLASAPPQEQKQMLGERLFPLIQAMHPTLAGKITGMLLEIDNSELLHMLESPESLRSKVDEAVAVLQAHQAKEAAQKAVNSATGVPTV
Caspase-7, sequence (P55210 24-198 limits assumed): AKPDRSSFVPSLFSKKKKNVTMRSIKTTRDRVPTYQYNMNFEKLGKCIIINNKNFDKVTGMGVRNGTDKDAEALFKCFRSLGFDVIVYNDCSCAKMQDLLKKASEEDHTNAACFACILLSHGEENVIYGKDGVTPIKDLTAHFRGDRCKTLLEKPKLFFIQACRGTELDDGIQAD
Caspase-7, sequence (P55210 207-303 limits assumed): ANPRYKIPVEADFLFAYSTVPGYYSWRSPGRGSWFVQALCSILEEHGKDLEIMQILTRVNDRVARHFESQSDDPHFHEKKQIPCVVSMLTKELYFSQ
Cytochrome P450 2C19, sequence (P33261 whole entry): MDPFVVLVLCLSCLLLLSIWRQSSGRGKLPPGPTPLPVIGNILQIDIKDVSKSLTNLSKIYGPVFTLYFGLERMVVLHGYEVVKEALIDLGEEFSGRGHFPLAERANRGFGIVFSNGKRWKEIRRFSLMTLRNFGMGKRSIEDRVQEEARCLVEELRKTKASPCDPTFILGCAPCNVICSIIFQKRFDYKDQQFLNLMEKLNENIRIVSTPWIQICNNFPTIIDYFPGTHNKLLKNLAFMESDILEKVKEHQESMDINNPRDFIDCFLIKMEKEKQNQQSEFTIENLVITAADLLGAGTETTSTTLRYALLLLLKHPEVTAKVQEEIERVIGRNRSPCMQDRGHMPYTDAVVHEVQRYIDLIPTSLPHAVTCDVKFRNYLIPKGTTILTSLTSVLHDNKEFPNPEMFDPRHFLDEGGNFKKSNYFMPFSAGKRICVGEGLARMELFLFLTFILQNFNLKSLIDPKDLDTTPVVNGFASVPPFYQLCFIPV
Cytochrome P450 2D6, sequence (P10635 whole entry): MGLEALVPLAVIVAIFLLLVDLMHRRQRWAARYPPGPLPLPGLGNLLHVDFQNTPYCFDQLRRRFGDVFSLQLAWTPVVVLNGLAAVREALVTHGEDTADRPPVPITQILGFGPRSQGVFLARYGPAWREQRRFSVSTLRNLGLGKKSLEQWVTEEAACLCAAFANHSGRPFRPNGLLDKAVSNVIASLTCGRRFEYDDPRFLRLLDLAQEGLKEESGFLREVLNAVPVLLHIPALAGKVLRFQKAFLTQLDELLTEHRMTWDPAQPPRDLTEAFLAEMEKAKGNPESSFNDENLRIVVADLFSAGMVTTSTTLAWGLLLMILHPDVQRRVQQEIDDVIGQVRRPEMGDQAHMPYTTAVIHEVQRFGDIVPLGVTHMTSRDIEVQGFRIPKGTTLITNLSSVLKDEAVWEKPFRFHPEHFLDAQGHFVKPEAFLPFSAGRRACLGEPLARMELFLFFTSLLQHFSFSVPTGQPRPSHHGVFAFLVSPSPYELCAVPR

CC(CNc1ccccc1O)C(=O)O (configuration not stated)
IC50 [1]: > 80 µM (inactive)
IC50 [2]: > 66 µM (inactive)
AC50 (Caspase-6): 3.52 µM (active)
EC50 [3]: > 100 µM (inactive)
AC50 (Caspase-7): > 70 µM (inactive)
EC50 [4]: 14 µM (active)
AC50 [5]: 28.7 µM (active)
IC50 [6]: > 66 µM (inactive)
EC50 (Protein RecA): 7.79 µM (active)

CN(C)CCN(c1ccccn1)c1ccccn1
AC50 (Cytochrome P450 2C19): inconclusive
AC50 (Cytochrome P450 1A2): inconclusive
AC50 (Cytochrome P450 2D6): 3.98 µM (inconclusive)

CCOC(=O)c1c(CN2CCCCC2)n(C)c2cc(Br)c(O)c(CN(C)C)c12
AC50 [7]: 52.5 µM (active)

O=C(O)CSc1cc(C(=O)c2ccccc2O)cn2c(=O)c3c(-c4ccccc4)csc3nc12
IC50 (Fatty acid synthase [8]): 4.85 µM (active)
CC50 (Vero): 38.8 µM (active)
IC50 [9]: 28.4 µM (active)
IC50 (Fatty acid synthase [10]): 4.3 µM (active)
IC50 [11]: 1.93 µM (active)
IC50 [12]: 13.2 µM (active)
IC50 [13]: 7.1 µM (active)
IC50 [14]: 12.3 µM (active)
IC50 [15]: 14.6 µM (active)
